Experimental data from EP0479834B1, “COMPETITIVE ENZYME ASSAY FOR DETERMINATION OF PHOSPHOTHIOATE INSECTICIDES” (COMMONWEALTH SCIENTIFIC AND INDUSTRIAL RESEARCH ORGANISATION, priority 1989, dated 1991).

How the values were obtained:
Assay type in all cases: binding
[1] = test system: Antibody F7 (phosphorothioate-specific antibody; control pesticide chlorpyrifos-methyl); assay: competition ELISA, assay format 2 (pesticide-macromolecule conjugate on the solid phase, antibody in solution); settings: Antibody F7, assay format 2, control pesticide CP; 30 min antibody incubation
Method: The solid phase is coated with a pesticide-macromolecule conjugate. For the results listed in Table 1, the immunogen conjugate of chlorpyrifos-methyl (F7) was used. Following pretreatment to minimize non-specific binding of conjugate by treatment with a suitable protein or detergent, the sample to be analyzed is added. The grain, food or other sample may either be extracted in methanol, ethanol or other polar water-miscible solvent, or otherwise be extracted with a volatile organic solvent such as dichloromethane or acetone. The solvent may be removed by evaporation and the residue redissolved in a smaller volume of methanol. The extract or reconstituted residue is diluted in a protein and detergent - containing buffer and applied to the solid phase and antibody is added immediately. A standard is prepared in methanol and dilutions of this standard assayed simultaneously. Such antibody may either be enzyme-labelled by direct covalent association or a suitable amplification step used to detect binding of the antibody. Analysis by this technique is based on the competition between phosphorothioate in the test sample and solid phase- bound phosphorothioate, for binding to antibody in solution. There is a decrease in the binding of antibody as the concentration of organophosphate increases in the test sample; this is manifest in decreasing absorbance of the coloured enzyme product, in this example. The concentration of organophosphate may be assessed as described in assay format 1. Clean-up of the extracts was not necessary.
An antibody incubation time of 30 minutes was used, together with 20 min (2,2'-azino bis (3-ethylbenzthiazoline-6-sulfonic acid)) substrate incubation time. The overall assay time can be reduced to 5-10 minutes or increased to 18 hours for batchwise analysis of large numbers of (several hundred) samples.
The data shown in Table 1 are potencies relative to the control pesticide (determined as relative concentration yielding 50% inhibition of antibody binding). Absolute amounts of control pesticide yielding 50% inhibition of antibody binding in competition ELISA are: P9 (0.001 ng), F7 (50 ng), Pll (2 ng).

[2] = test system: Antibody F9 (phosphorothioate-specific antibody; control pesticide chlorpyrifos-methyl); assay: competition ELISA, assay format 1 (antibody on the solid phase, horseradish peroxidase-labelled phosphorothioate); settings: Antibody F9, assay format 1, control pesticide CP; 30 min incubation with enzyme conjugate
Method: (§1) The solid phase is coated with phosphorothioate-specific antibody. Preferentially the antibody is coated at 10µg/mL in 50mM sodium carbonate buffer, pH 9.6. Non-specific binding of immunoreactants is then minimized by treatment with a suitable protein or detergent, for example, 10mg/mL bovine serum albumin in 50mM sodium phosphate, pH 7.2 - 0.9% sodium chloride. The grain or food or other sample to be analyzed is extracted in neat methanol or ethanol, although other polar water-miscible solvents may be used; such as isopropanol, acetonitrile and acetone. Mixtures of water and these solvents may also be used. The grain, food or other extract is diluted five-fold in a protein and detergent-containing buffer (for example 10mg/mL bovine serum albumin or lmg/mL Teleostean fish skin gelatin in 0.05% (v/v) Tween in phosphate-buffered saline) applied to the solid phase and enzyme-labelled phosphorothioate (diluted similarly) is added immediately. A standard is prepared in methanol or ethanol and dilutions of this standard assayed simultaneously.
(§2) An incubation time of 30 min with chlorpyrifos-methyl (P9) or pirimiphos-methyl (P11) conjugated to horseradish peroxidase was used for the results shown in Table 1, together with 10 min chromogenic substrate (2,2'-azino-bis (3-ethyl benzthiazoline -6- sulfonic acid)) incubation time. The chromogen 3,3',5,5'-tetramethylbenzidine may also be used.
(§3) Analysis by this technique is based on the competition between phosphorothioate in the test sample and enzyme-labelled phosphorothioate for binding to phosphorothioate-specific antibody on the solid phase. There is a decrease in the binding of the enzyme-labelled phosphorothioate as the concentration of phosphorothioate increases in the test sample; this is manifest in decreasing absorbance of the coloured enzyme product. The concentration of phosphorothioate in an unknown sample may be determined by comparing the degree of inhibition of antibody binding caused by the addition of the sample extract with that resulting from the addition of known amounts of phosphorothioate. […]

[3] = test system: Antibody P11 (phosphorothioate-specific antibody; control pesticide pirimiphos-methyl); assay: as above; settings: Antibody P11, assay format 1, control pesticide PY; 30 min incubation with enzyme conjugate
Method: as §1, §2, §3

SMILES | potencies relative to the control pesticide (relative concentration yielding 50% inhibition of antibody binding) [1] | potencies relative to the control pesticide (relative concentration yielding 50% inhibition of antibody binding) [2] | potencies relative to the control pesticide (relative concentration yielding 50% inhibition of antibody binding) [3]
CCOP(=S)(OCC)Oc1nc(Cl)c(Cl)cc1Cl [chlorpyrifos-ethyl] | 0.07 |  | 
COP(=S)(OC)Oc1nc(Cl)c(Cl)cc1Cl [chlorpyrifos-methyl (CP), chlorpyrifos-methyl] | 1.0 | 1.0 | 
COP(=S)(OC)Oc1ccc([N+](=O)[O-])cc1Cl [dicapthon] | 0.01 |  | 
COP(=S)(OC)Oc1ccc([N+](=O)[O-])c(C)c1 [fenitrothion (FN), fenitrothion] | 0.01 |  | 
COP(=S)(OC)Oc1ccc([N+](=O)[O-])cc1 [methylparathion] | 0.003 |  | 
CCOP(=S)(OCC)Oc1cc(C)nc(N(CC)CC)n1 [pirimiphos-ethyl] |  |  | 2.9
CCN(CC)c1nc(C)cc(OP(=S)(OC)OC)n1 [pirimiphos-methyl (PY), pirimiphos-methyl] |  |  | 1.0
